Assay results taken from US7094911B2, “Biphenyl and biphenyl-analogous compounds as integrin antagonists” (Bayer Aktiengesellschaft, priority 1998, dated 2006).

Assays:
ανβ3 receptor = target: T1, ανβ3 receptor (Homo sapiens, UniProt P05106+P06756); experiment: Binding to the αvβ3 receptor (echistatin SPA); conditions: ανβ3 purified from human A375 cells, labelled echistatin, WGA SPA beads; read-out: avb3 IC50
T1 construct: ανβ3 from human A375 cells were purified according to a procedure described by Wong et al; endogenous in cells; host or cells: human A375 cells (receptor purified from the cells, detergent-solubilised)
Procedure: Biological Investigations a) Binding to the ανβ3 Receptor
10 μl ανβ3 (5 ng) in TBS pH 7.6, 2 mM CaCl2, 1 mM MgCl2, 1% n/octylglucopyranoside; 10 μl of the substance to be tested in TBS pH 7.6, 0.1% dimethylsulfoxide (DMSO), and 45 μl TBS pH 7.6, 2 mM CaCl2, 1 MM MgCl2, 1 mM MnCl2 were each incubated for 1 h at room temperature.

smooth muscle cells = experiment: Smooth muscle cell (SMC) migration test; assay type: cell-based, humans or rats; conditions: horizontal migration on vitronectin-coated plates, 24 hours; human or rat cells not specified
Procedure: b) Smooth Muscle Cell (SMC) Migration Test
Smooth muscle cells from humans or rats were used. The migration of the cells was determined in a horizontal measuring arrangement (Falcon).
The horizontal migration was determined in 6-well plates coated with vitronectin (1 μg/cm^2). The cells were suspended in a medium (DMEM:F12/0, 12% BSA-rat smooth muscle cells or MCDB 131 with 0.2% BSA-human smooth muscle cells), inoculated and allowed to grow to confluence. Half of the smooth muscle cell lawn was then scraped off, and the cells were treated with different concentrations of the test compounds. The mixtures were incubated for 24 hours at 37° C. in the presence of 5% CO2 After the incubation, the smooth muscle cell migration was determined by measurement of the migration distance and the cell density of the migrated cells.

αvβ3 receptor = conditions: WO 98/00395, second value; cited from earlier work

T1 sequence (P06756 31-889 limits assumed): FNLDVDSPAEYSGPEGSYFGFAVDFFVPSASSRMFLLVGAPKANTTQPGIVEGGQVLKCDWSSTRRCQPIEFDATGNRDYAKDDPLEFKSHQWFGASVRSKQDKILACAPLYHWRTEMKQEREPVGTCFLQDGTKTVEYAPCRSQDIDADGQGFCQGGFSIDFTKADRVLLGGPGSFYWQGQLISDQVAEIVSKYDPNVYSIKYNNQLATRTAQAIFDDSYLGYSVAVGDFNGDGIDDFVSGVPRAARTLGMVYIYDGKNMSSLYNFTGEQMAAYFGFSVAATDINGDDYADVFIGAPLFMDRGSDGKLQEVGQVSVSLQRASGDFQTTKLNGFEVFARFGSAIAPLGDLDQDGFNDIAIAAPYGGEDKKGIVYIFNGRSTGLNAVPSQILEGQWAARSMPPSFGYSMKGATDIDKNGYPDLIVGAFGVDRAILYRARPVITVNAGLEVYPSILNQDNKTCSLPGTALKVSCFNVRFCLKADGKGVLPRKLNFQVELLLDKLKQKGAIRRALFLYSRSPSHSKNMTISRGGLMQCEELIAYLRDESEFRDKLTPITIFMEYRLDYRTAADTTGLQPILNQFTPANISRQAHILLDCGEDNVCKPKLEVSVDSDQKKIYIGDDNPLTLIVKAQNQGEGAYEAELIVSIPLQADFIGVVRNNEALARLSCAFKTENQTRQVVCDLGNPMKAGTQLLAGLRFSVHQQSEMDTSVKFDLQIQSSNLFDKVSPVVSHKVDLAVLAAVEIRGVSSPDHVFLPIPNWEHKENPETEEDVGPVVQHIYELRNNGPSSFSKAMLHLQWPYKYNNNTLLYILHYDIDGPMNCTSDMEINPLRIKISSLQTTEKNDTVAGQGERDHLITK
T1 sequence (P06756 891-1048 partner limits assumed): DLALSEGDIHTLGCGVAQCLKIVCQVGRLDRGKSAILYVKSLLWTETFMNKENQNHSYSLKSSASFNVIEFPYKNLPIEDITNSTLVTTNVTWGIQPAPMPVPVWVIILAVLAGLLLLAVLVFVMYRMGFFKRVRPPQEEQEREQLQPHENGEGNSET
T1 sequence (P05106 27-788): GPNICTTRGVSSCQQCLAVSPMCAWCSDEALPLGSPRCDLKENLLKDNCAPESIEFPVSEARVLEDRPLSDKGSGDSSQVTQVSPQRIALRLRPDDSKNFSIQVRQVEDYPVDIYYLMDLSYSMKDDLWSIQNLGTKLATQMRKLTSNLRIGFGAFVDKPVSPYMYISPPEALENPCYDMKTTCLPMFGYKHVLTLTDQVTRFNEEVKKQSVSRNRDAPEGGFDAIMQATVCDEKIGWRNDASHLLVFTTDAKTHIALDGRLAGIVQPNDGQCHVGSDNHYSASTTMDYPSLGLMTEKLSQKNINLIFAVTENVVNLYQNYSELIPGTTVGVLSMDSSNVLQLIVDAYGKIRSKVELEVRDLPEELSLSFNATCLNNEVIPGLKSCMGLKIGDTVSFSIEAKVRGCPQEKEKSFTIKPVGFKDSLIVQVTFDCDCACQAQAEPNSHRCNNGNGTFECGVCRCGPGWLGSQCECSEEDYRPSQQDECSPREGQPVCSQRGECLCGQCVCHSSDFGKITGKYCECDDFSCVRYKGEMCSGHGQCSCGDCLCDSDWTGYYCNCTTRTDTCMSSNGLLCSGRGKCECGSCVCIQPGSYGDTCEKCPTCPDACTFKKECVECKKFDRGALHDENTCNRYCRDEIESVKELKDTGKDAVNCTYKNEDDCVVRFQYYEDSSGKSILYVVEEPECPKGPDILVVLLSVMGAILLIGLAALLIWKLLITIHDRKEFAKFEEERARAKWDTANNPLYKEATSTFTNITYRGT

CC1(C)[C@@H]2CC[C@@]1(CS(=O)(=O)N[C@@H](Cc1ccc(-c3cccc(NC(=O)Nc4cccnc4)c3)cc1)C(=O)O)C(=O)C2 [Example 1.73, (2S)-3-[3′-(3-Pyridin-3-yl-ureido)-biphenyl-4-yl]-2-[(S)-campher-10-yl-sulfonylamino]-propanoic acid]
IC50 (ανβ3 receptor): 2 nM
IC50 (smooth muscle cells): 3 to 40 nM

CC1(C)C2CCC1(CS(=O)(=O)NC(Cc1ccc(OCCCC(=O)NC(=N)N)cc1)C(=O)O)C(=O)C2 (centres unmarked) [(I)]
IC50 (αvβ3 receptor): 0.16 nM

N#C/N=C(\NCc1ccccc1)Nc1cccc(-c2cccc(S(=O)(=O)NC(CC(=O)O)c3ccccc3)c2)c1 (centres unmarked) [Example 10.1.5, 3-[(3′-{[(benzylamino)(cyanoimino)methyl]amino}[1,1′-biphenyl]-3-yl)sulfonylamino]-3-phenyl-propanoic acid]
melting point: 90 °C

CCCNC(=O)Nc1cccc(-c2cccc(CC(NS(=O)(=O)c3c(C)cc(C)cc3C)C(=O)O)c2)c1 (centres unmarked) [Example 1.192]
melting point: 136 °C
